This is an account of results in patent publication US7935709B2, “2-quinazolinone compounds and methods of use” (Amgen Inc., priority 2006, dated 2011).

As a reminder, the IC50 is the concentration at which inhibition is half-maximal. A lower IC50 goes with higher potency.

Bounds are passed on as bounds.

Assay [1] deals with TNF-α secretion by THP1 cells. Put plainly: Lipopolysaccharide-Activated THP1 Cell TNF Production Assay (THP-cellular TNF release assay). To be noted: Homo sapiens, THP-1, LPS-activated THP1 cells. The format is cell-based. On the procedure:
Lipopolysaccharide-Activated THP1 Cell TNF Production Assay
THP1 cells are re-suspended in fresh THP1 media (RPMI 1640, 10% heat-inactivated FBS, 1XPGS, 1XNEM, plus 30 μM βME) at a concentration of 1E6/mL. One hundred microliters of cells per well were plated in a polystyrene 96-well tissue culture. One microgram per mL of bacterial LPS is prepared in THP1 media and is transferred to the wells. Test compounds are dissolved in 100% DMSO and are serially diluted 3 fold in a polypropylene 96-well microtiter plate (drug plate). HI control and LO control wells contain only DMSO. One microliter of test compound from the drug plate followed by 10 μL of LPS were transferred to the cell plate. The treated cells are induced to synthesize and secrete TNF-α at 37° C. for 3 h. Forty microliters of conditioned media are transferred to a 96-well polypropylene plate containing 110 μL of ECL buffer (50 mM Tris-HCl pH 8.0, 100 mM NaCl, 0.05% Tween 20, 0.05% NaN3 and 1% FBS) supplemented with 0.44 nM MAB610 monoclonal Ab (R&D Systems), 0.34 nM ruthenylated AF210NA polyclonal Ab (R&D Systems) and 44 μg/mL sheep anti-mouse M280 Dynabeads (Dynal). After a 2 h incubation at room temperature with shaking, the reaction is read on the ECL M8 Instrument (IGEN Inc.). A low voltage is applied to the ruthenylated TNF-α immune complexes, which in the presence of TPA (the active component in Origlo), results in a cyclical redox reaction generating light at […]. The amount of secreted TNF-αin the presence of compound compared with that in the presence of DMSO vehicle alone (HI control) is calculated using the formula: % control (POC)=(cpd−average LO)/(average HI−average LO)*100. Data (consisting of POC and inhibitor concentration in μM) is fitted to a 4-parameter equation (y=A+((B−A)/(1+((x/C)^D))), where A is the minimum y (POC) value, B is the maximum y (POC), C is the x (cpd concentration) at the point of inflection and D is the slope factor) using a Levenburg-Marquardt non-linear regression algorithm.

For assay [2], the system named is TNF production by monocytes. Put plainly: Lipopolysaccharide-Activated Monocyte TNF Production Assay (LPS induced TNF release). The assay is classed as cell-based. To be noted: Homo sapiens, LPS-activated adherent monocytes from PBMCs. On the procedure: Lipopolysaccharide-Activated Monocyte TNF Production Assay
Test compounds were evaluated in vitro for the ability to inhibit the production of TNF by monocytes activated with bacterial lipopolysaccharide (LPS). Fresh residual source leukocytes (a byproduct of plateletpheresis) were obtained from a local blood bank, and peripheral blood mononuclear cells (PBMCs) were isolated by density gradient centrifugation on Ficol-Paque Plus (Pharmacia). PBMCs were suspended at 2×10^6/mL in DMEM supplemented to contain 2% FCS, 10 mM, 0.3 mg/mL […], 100 U/mL penicillin G and […] streptomycin sulfate (complete media). Cells were plated into Falcon flat bottom, 96 well culture plates (200 μL/well) and cultured overnight at 37° C. and 6% CO2. Non-adherent cells were removed by washing with 200 μl/well of fresh medium. Wells containing adherent cells (˜70% monocytes) were replenished with 100 μL of fresh medium.
Preparation of Test Compound Stock Solutions
Test compounds were dissolved in […]. Compound stock solutions were prepared to an initial concentration of […]. Stocks were diluted initially to 20-200 μM in complete media. Nine two-fold serial dilutions of each compound were then prepared in complete medium. Treatment of cells with test compounds and activation of TNF production with lipopolysaccharide.
One hundred microliters of each test compound dilution were added to microtiter wells containing adherent monocytes and 100 μL complete medium. Monocytes were cultured with test compounds for 60 min at which time 25 μL of complete medium containing 30 ng/mL lipopolysaccharide from E. coli K532 were added to each well. Cells were cultured an additional 4 hrs. Culture supernatants were then removed and TNF presence in the supernatants was quantified using an ELISA.
Flat bottom, 96 well Corning High Binding ELISA plates were coated overnight (4° C.) with 150 μL/well of 3 μg/mL murine anti-human TNF-α MAb (R&D Systems #MAB210). Wells were then blocked for 1 h at room temperature with 200 μL/well of CaCl2-free ELISA buffer supplemented to contain 20 mg/mL BSA (standard ELISA buffer: […], 150 mM NaCl, 2 mM CaCl2, 0.15 mM thimerosal, pH 7.4). Plates were washed and replenished with 100 μL of test supernatants (diluted 1:3) or standards. Standards consisted of eleven 1.5-fold serial dilutions from a stock of 1 ng/mL recombinant human TNF (R&D Systems). Plates were incubated at room temperature for 1 h on orbital shaker (300 rpm), washed and replenished with 100 μL/well of 0.5 μg/mL goat anti-human TNF-α(R&D systems #AB-210-NA) biotinylated at a 4:1 ratio. Plates were incubated for 40 min, washed and replenished with 100 μL/well of alkaline phosphatase-conjugated streptavidin (Jackson ImmunoResearch #016-050-084) at 0.02 μg/mL. Plates were incubated 30 min, washed and replenished with 200 μL/well of 1 mg/mL of p-nitrophenyl phosphate. After 30 min, plates were read at 405 nm on a Vmax plate reader.
Standard curve data were fit to a second order polynomial and unknown TNF-α concentrations determined from their OD by solving this equation for concentration. TNF concentrations were then plotted vs. test compound concentration using a second order polynomial. This equation was then used to calculate the concentration of test compounds causing a 50% reduction in TNF production.

On to `Cc1ccncc1-c1ccc2c(c1)CNC(=O)N2c1ccccc1Cl` [Example 4, 1-(2-Chlorophenyl)-6-(4-methylpyridin-3-yl)-3,4-dihydroquinazolin-2(1H)-one], for which the IC50 was at most 2.5 µM in assay [1] and at most 25 µM in assay [2].
With `Cc1ccc(C(=O)NC2CC2)cc1-c1ccc2c(cnc(=O)n2CCN2CCOCC2)c1` [Example 8, N-Cyclopropyl-4-methyl-3-(1-(2-morpholinoethyl)-2-oxo-1,2-dihydroquinazolin-6-yl)benzamide], the IC50 in assay [2] is at most 25 µM.
As to `O=c1ncc2cc(Cl)ccc2n1Cc1ccccc1` [Example 1, 1-Benzyl-6-chloroquinazolin-2-(1H)-one], the IC50 in assay [1] is at most 2.5 µM; in assay [2], at most 25 µM.
Take `Cc1ccc(C(=O)NC2CC2)cc1-c1ccc2c(c1)CNC(=O)N2c1ccccc1Cl` [Example 11, 3-(1-(2-chlorophenyl)-2-oxo-1,2,3,4-tetrahydro-6-quinazolinyl)-N-cyclopropyl-4-methylbenzamide]: the IC50 in assay [2] was at most 25 µM.
Turning to `COc1ccc(CN2Cc3cc(-c4cc(C(=O)NC5CC5)ccc4C)ccc3NC2=O)cc1` [Example 2, 3-(3-(4-Methoxybenzyl)-2-oxo-1,2,3,4-tetrahydroquinazolin-6-yl)-N-cyclopropyl-4-methylbenzamide], the half-inhibitory concentration (IC50) in assay [1] is at most 2.5 µM; in assay [2], at most 25 µM.
As to `Cc1ccc(C(=O)NC2CC2)cc1-c1ccc2c(cnc(=O)n2C2CCN(C(=O)OC(C)(C)C)CC2)c1` [Example 10, tert-Butyl 4-(6-(5-(cyclopropylcarbamoyl)-2-methylphenyl)-2-oxoquinazolin-1(2H)-yl)piperidine-1-carboxylate], the IC50 in assay [2] was at most 25 µM.
Same read-out and setting: the same measure for `Cc1ccc(C(=O)NC2CC2)cc1-c1ccc2c(cnc(=O)n2-c2ccccc2C)c1` [Example 6, N-Cyclopropyl-4-methyl-3-(2-oxo-1-o-tolyl-1,2-dihydroquinazolin-6-yl)benzamide]: at most 25 µM.
On to `Cc1ccc(C(=O)NC2CC2)cc1-c1cnc2c(c1)CNC(=O)N2c1ccccc1Cl` [Example 12, 3-(1-(2-chlorophenyl)-2-oxo-1,2,3,4-tetrahydropyrido[2,3-d]pyrimidin-6-yl)-N-cyclopropyl-4-methylbenzamide], for which the IC50 in assay [1] is at most 2.5 µM; in assay [2], at most 25 µM.
Regarding `Cc1ccc(C(=O)NC2CC2)cc1-c1ccc2c(cnc(=O)n2-c2ccccc2Cl)c1` [Example 3], the IC50 in assay [2] was at most 25 µM.
Same read-out and setting: the same measure for `Cc1ccc(C(=O)NC2CC2)cc1-c1ccc2c(c1)CNC(=O)N2c1ccccc1C` [Example 5, N-Cyclopropyl-4-methyl-3-(2-oxo-1-o-tolyl-1,2,3,4-tetrahydroquinazolin-6-yl)benzamide]: at most 25 µM; for `Cc1ccc(C(=O)NC2CC2)cc1-c1ccc2c(cnc(=O)n2C2CCOCC2)c1` [Example 13, N-cyclopropyl-4-methyl-3-(2-oxo-1-(tetrahydro-2H-pyran-4-yl)-1,2-dihydro-6-quinazolinyl)benzamide]: at most 25 µM.
